The text below walks through data of patent US20060205808A1, “Anti-inflammatory and cure for ageing, Alzheimer's disease on phloroglucinol derivatives” (Kaohsiung Medical University, priority 2005, published 2006).

Broadly, the IC50 is the concentration at which inhibition is half-maximal.

Where only a bound is given, the exact number is not on record here.

The test system of test [1] is RAW 264.7 macrophage-like cells. Kind of test: NO production (nitrite accumulation, Griess reaction) in RAW 264.7 cells in response to LPS. Type of test: cell-based. To be noted: LPS (1 μg mL^−1), 24 h; for IC50: read-out: IC50, accumulation of NO2^− in culture media, RAW 264.7 cells. The procedure:
(§1) Treatment of RAW 264.7 macrophage-like cells with LPS (1 μg mL^−1) or N9 microglial cells with LPS (10 ng mL^−1)/IFN-γ (10 U mL^−1) for 24 h induced NO production as assessed by measuring the accumulation of nitrite, a stable metabolite of NO, in the media, based on the Griess reaction. […] 1400 W was used in this experiment as a positive control.

Test [2] has as its system N9 microglial cells. Kind of test: NO production (nitrite accumulation, Griess reaction) in N9 cells in response to LPS/IFN-γ. Type of test: cell-based. To be noted: LPS (10 ng mL^−1)/IFN-γ (10 U mL^−1); for IC50: read-out: IC50, accumulation of NO2^− in culture media, N9 cells. The method, then: as §1
Test [3] relates to mast cells and neutrophils. To be noted: background statement; cited from earlier work.
In test [4] the test system is rat neutrophils. Kind of test: release of β-glucuronidase from rat neutrophils stimulated with fMLP/CB. Type of test: cell-based. To be noted: fMLP (1 μM)/CB (5 μg mL^−1); for IC50: means ± s.e.m. (n = 3-5).
The test system of test [5] is rat neutrophils. Kind of test: release of lysozyme from rat neutrophils stimulated with fMLP/CB. In kind it is cell-based. The conditions noted are these: fMLP (1 μM)/CB (5 μg mL^−1); for IC50: means ± s.e.m. (n = 3-5).
For test [6], the system named is rat neutrophils. Kind of test: fMLP/CB-induced superoxide anion generation in rat neutrophils. Type of test: cell-based. The method, then:
(§2) FMLP (0.3 μM)/CB (5 μg mL^−1) or phorbol myristate acetate (PMA) (3 nM) stimulated superoxide anion generation in rat neutrophils. […] Trifluoperazine was used in this experiment as a positive control.

In test [7] the test system is rat neutrophils. The test is described as follows: PMA-induced superoxide anion generation in rat neutrophils. In kind it is cell-based. The conditions noted are these: PMA (3 nM). The procedure: as §2

As for `CC(=N)NCc1cccc(CN)c1` [Compound 1400W, N-(3-Aminomethyl) benzylacetamidine, reference compound], the half-maximal inhibitory concentration (IC50) in test [1] was determined as 3 ± 0.2 µM; in test [2] (24 h), 2.2 ± 0.1 µM.

Consider `CC(C)=CCC1=C2O[C@H](C(C)(C)O)C[C@@]23C[C@H](CC=C(C)C)C(C)(C)[C@@](C(=O)C(C)C)(C1=O)C3=O` [Garsubellin A], for which the “inhibition of chemical mediators release from mast cells and neutrophils (in words)” value in test [3] is on record as “strongly inhibited”.

Take `CN1CCN(CCCN2c3ccccc3Sc3ccc(C(F)(F)F)cc32)CC1` [Trifluoperazine, reference compound]: the IC50 in test [4] (Neutrophil) is 10.6 ± 0.9 µM; in test [5] (Neutrophil), 13.2 ± 0.7 µM; in test [6] (Neutrophil, fMLP (0.3 μM)/CB (5 μg mL^−1)), 6.6 ± 0.2 µM; in test [7] (Neutrophil), 2.7 ± 0.6 µM.

On to `CC(C)=CC[C@H]1C[C@]2(CC=C(C)C)C(=O)[C@]3(CC=C(C)C)O[C@@]1(C(=O)C(C)C)[C@@]2(O)C(C)(C)C3=O` [garcinielliptin oxide], for which the “inhibition of chemical mediators release from mast cells and neutrophils (in words)” value in test [3] was “strongly inhibited”.

On to Garcinielliptone I [Compound 4], for which the “% of inhibition at the highest concentration, β-Glucuronidase release” value in test [4] (highest concentration) is 15.6 ± 2.7%. Besides, the IC50 in test [4] is over 30 µM; in test [5], over 30 µM; in test [6] (fMLP (0.3 μM)/CB (5 μg mL^−1)), over 30 µM; in test [7], over 30 µM; in test [1] it was over 30 µM; in test [2] (24 h), 7.4 ± 0.2 µM. In addition, the “% of inhibition at the highest concentration, Lysozyme release” value in test [5] (highest concentration) is reported as −1.6 ± 7.3%. Also, the “% of inhibition at the highest concentration, superoxide anion, fMLP/CB” value in test [6] (fMLP (0.3 μM)/CB (5 μg mL^−1), highest concentration) is on record as 2.8 ± 5.7%. Besides, the “% of inhibition at the highest concentration, superoxide anion, PMA” value in test [7] was −76.3 ± 7.3%. The “% of inhibition at the highest concentration, NO2^− accumulation, RAW 264.7 cells” value in test [1] was 17.4 ± 1.5%. Besides, the “effect on production of NO induced by LPS/IFN-γ in N9 cells (in words)” value in test [2] is recorded as “potent inhibitory effect”.

Regarding `CC(C)=CCC1CC2(CC=C(C)C)C(=O)C(C(=O)C(C)C)(C(=O)C(C=CC(C)(C)O)=C2O)C1(C)C` (centres unmarked) [Compound 1, Garcinielliptone F], the “inhibitory effect on release of β-glucuronidase (in words)” value in test [4] was “potent inhibitory effects”. Besides, the IC50 is 26.9 ± 2.6 µM in test [4]; 20 ± 1.3 µM in test [5]; 17 ± 0.9 µM in test [6] (fMLP (0.3 μM)/CB (5 μg mL^−1)); over 30 µM in test [7]; over 10 µM in test [1]; over 3 µM in test [2] (24 h). The “inhibitory effect on release of lysozyme (in words)” value in test [5] is “potent inhibitory effects”. Also, in test [6] (fMLP/CB (5 μg mL^−1)), the “inhibitory effect on fMLP/CB-induced superoxide anion generation (in words)” value is “potent inhibitory effect”. In addition, the “% of inhibition at the highest concentration, superoxide anion, PMA” value in test [7] turned out to be 46.8 ± 4.5%. Besides, the “% of inhibition at the highest concentration, NO2^− accumulation, RAW 264.7 cells” value in test [1] is reported as 22.9 ± 2.9%. Also, in test [2] (24 h, highest concentration), the “% of inhibition at the highest concentration, NO2^− accumulation, N9 cells” value turned out to be 31.2 ± 0.7%.
